For 13 compounds, IC50 results are on record in patent publication US7674819B2 (Warner-Lambert Company LLC, priority 2005, dated 2010).

The test concerns the target T1, hAR (Homo sapiens, UniProt P10275).
T1 sequence (P10275 1-920): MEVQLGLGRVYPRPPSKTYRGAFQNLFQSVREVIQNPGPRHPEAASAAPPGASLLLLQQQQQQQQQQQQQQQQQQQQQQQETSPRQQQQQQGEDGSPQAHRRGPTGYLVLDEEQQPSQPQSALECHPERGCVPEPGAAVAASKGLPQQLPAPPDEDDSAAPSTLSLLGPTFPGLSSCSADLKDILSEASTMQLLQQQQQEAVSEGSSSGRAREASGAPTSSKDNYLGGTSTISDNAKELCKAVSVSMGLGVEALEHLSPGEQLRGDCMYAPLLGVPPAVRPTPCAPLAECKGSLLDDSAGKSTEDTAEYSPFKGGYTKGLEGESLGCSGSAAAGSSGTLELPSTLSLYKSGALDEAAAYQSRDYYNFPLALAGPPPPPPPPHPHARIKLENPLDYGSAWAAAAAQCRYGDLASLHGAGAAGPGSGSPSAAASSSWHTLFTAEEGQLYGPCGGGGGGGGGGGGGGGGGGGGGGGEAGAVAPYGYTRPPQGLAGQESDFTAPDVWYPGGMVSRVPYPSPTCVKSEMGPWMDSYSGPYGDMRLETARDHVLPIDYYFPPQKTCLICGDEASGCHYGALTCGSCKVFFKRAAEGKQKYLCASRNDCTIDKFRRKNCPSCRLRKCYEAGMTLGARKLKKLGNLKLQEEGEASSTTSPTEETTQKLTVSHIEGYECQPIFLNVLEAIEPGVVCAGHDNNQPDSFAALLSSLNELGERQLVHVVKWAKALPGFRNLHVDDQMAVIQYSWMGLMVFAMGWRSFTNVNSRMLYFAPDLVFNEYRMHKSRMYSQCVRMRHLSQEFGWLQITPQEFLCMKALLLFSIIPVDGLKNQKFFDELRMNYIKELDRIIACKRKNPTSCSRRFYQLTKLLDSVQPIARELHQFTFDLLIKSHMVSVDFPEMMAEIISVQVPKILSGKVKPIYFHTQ
The experiment in a line: Competitive binding of 3H-DHT to baculovirus/Sf9 generated hAR extracts. The following applies: concentration at which one half of maximum binding of 1 nM 3H-DHT to hAR is inhibited; one hour at 4° C.; mean of multiple tests; read-out: IC50. Here is the method:
The description below describes how the assay was carried out.
Competitive binding analysis was performed on baculovirus/Sf9 generated hAR extracts in the presence or absence of different concentrations of test agent and a fixed concentration of ^3H-dihydrotestosterone (^3H-DHT) as tracer. This binding assay method is a modification of a protocol previously described (Liao S., et. al. J. Steroid Biochem. 20:11-17 1984). Briefly, progressively decreasing concentrations of compounds are incubated in the presence of hAR extract (Chang et al. P.N.A.S. Vol. 89, pp. […], 1992), hydroxylapatite, and 1 nM^3H-DHT for one hour at 4° C. Subsequently, the binding reactions are washed three times to completely remove excess unbound ^3H-DHT. hAR bound ^3H-DHT levels are determined in the presence of compounds (i.e. competitive binding) and compared to levels bound when no competitor is present (i.e. maximum binding). Compound binding affinity to the hAR is expressed as the concentration of compound at which one half of the maximum binding is inhibited.
Consider `Cc1noc(C)c1S(=O)(=O)N1CC(C)(C)C(Oc2ccc(C#N)c(C(F)(F)F)c2)C1=O` (stereo not shown) [Example 76, 4-[1-(3,5-Dimethyl-isoxazole-4-sulfonyl)-4,4-dimethyl-2-oxo-pyrrolidin-3-yloxy]-2-trifluoromethyl-benzonitrile], for which the IC50 was 430 nM.

`Cc1n[nH]c(C)c1S(=O)(=O)N1CC(C)(C)C(Oc2ccc(C#N)c(C(F)(F)F)c2)C1=O` (stereo not shown) [Example 77, 4-[1-(3,5-Dimethyl-1H-pyrazole-4-sulfonyl)-4,4-dimethyl-2-oxo-pyrrolidin-3-yloxy]-2-trifluoromethyl-benzonitrile]: the IC50 turned out to be 246 nM.

`CC(C)S(=O)(=O)N1CC(C)(C)C(Oc2ccc(C#N)c(C(F)(F)F)c2)C1=O` (stereo not shown) [Example 79, 4-[4,4-Dimethyl-2-oxo-1-(propane-2-sulfonyl)-pyrrolidin-3-yloxy]-2-trifluoromethyl-benzonitrile]: the IC50 stood at 305 nM.

For `Cc1ccc(S(=O)(=O)N2CC(C)(C)C(Oc3ccc(C#N)c(C(F)(F)F)c3)C2=O)s1` (stereo not shown) [Example 85, 4-[4,4-Dimethyl-1-(5-methyl-thiophene-2-sulfonyl)-2-oxo-pyrrolidin-3-yloxy]-2-trifluoromethyl-benzonitrile], the IC50 is 233 nM.

For `Cc1nc(C)c(S(=O)(=O)N2CC(C)(C)C(Oc3ccc(C#N)c(C(F)(F)F)c3)C2=O)s1` (stereo not shown) [Example 89, 4-[1-(2,4-Dimethyl-thiazole-5-sulfonyl)-4,4-dimethyl-2-oxo-pyrrolidin-3-yloxy]-2-trifluoromethyl-benzonitrile], the IC50 was 281 nM.

On to `CCCCS(=O)(=O)N1CC(C)(C)C(Oc2ccc(C#N)c(C(F)(F)F)c2)C1=O` (stereo not shown) [Example 90, 4-[1-(Butane-1-sulfonyl)-4,4-dimethyl-2-oxo-pyrrolidin-3-yloxy]-2-trifluoromethyl-benzonitrile], for which the IC50 was determined as 309 nM.

With `CC1(C)CN(S(=O)(=O)c2ccccc2C#N)C(=O)C1Oc1ccc(C#N)c(C(F)(F)F)c1` (stereo not shown) [Example 91, 4-[1-(2-Cyano-benzenesulfonyl)-4,4-dimethyl-2-oxo-pyrrolidin-3-yloxy]-2-trifluoromethyl-benzonitrile], the IC50 is 508 nM.

For the compound `Cc1cc(S(=O)(=O)N2CC(C)(C)C(Oc3ccc(C#N)c(C(F)(F)F)c3)C2=O)c(C)s1` (stereo not shown) [Example 92, 4-[1-(2,5-Dimethyl-thiophene-3-sulfonyl)-4,4-dimethyl-2-oxo-pyrrolidin-3-yloxy]-2-trifluoromethyl-benzonitrile], the IC50 worked out at 334 nM.

With `COC(=O)c1ccc(S(=O)(=O)N2CC(C)(C)C(Oc3ccc(C#N)c(C(F)(F)F)c3)C2=O)o1` (stereo not shown) [Example 100A, 5-[3-(4-Cyano-3-trifluoromethyl-phenoxy)-4,4-dimethyl-2-oxo-pyrrolidine-1-sulfonyl]-furan-2-carboxylic acid methyl ester], the IC50 was 242 nM.

As for `COc1cc(OC2C(=O)N(S(C)(=O)=O)CC2(C)C)ccc1C#N` (stereo not shown) [Example 100D, 4-(1-Methanesulfonyl-4,4-dimethyl-2-oxo-pyrrolidin-3-yloxy)-2-methoxy-benzonitrile], the IC50 was found to be 555 nM.

As to `CCC(CC)C(=O)N1CC(C)(C)C(Oc2ccc(C#N)c(C(F)(F)F)c2)C1=O` (stereo not shown) [Example 100E, 4-[1-(2-Ethyl-butyryl)-4,4-dimethyl-2-oxo-pyrrolidin-3-yloxy]-2-trifluoromethyl-benzonitrile], the IC50 was 372 nM.

Consider `CC1(C)CN(C2CCC2)C(=O)C1Oc1ccc(C#N)c(C(F)(F)F)c1` (stereo not shown) [Example 100F, 4-(1-Cyclobutyl-4,4-dimethyl-2-oxo-pyrrolidin-3-yloxy)-2-trifluoromethyl-benzonitrile], for which the 50% inhibitory concentration (IC50) was determined as 243 nM.

For `CCCC(=O)N1CC(C)(C)C(Oc2ccc(C#N)c(C(F)(F)F)c2)C1=O` (stereo not shown) [Example 102, 4-(1-Butyryl-4,4-dimethyl-2-oxo-pyrrolidin-3-yloxy)-2-trifluoromethyl-benzonitrile], the IC50 worked out at 418 nM.
